# Assay results: patent US11053204B2, “Pyrimidinyloxy benzene derivatives as herbicides” (FMC Corporation, priority 2015, dated 2021)
# Key:
# Type in all cases: in vivo
# [1] = tested on: galium (catchweed bedstraw, Galium aparine); experiment: Test A postemergence, visual injury rating; settings: 0 to 100 scale, 0 is no effect, 100 is complete control, approximately 10 days
# Procedure, shortened: (§1)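 Visual injury scored 0–100 (100 = complete control) against untreated controls about 10 days after treatment in a greenhouse. Test chemicals, formulated with surfactant in non-phytotoxic solvent, were sprayed on soil preemergence or on 2-10 cm, one- to two-leaf plants postemergence.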
# [2] = tested on: barnyardgrass (Echinochloa crus-galli); experiment: Test A postemergence, visual injury rating; settings: 0 to 100 scale, 0 is no effect, 100 is complete control, approximately 10 days
# Procedure, shortened: as §1
# [3] = tested on: blackgrass (Alopecurus myosuroides); experiment: Test A postemergence, visual injury rating; settings: 0 to 100 scale, 0 is no effect, 100 is complete control, approximately 10 days
# Procedure, shortened: as §1
# [4] = tested on: crabgrass, large (large crabgrass, Digitaria sanguinalis); experiment: Test C preemergence, plant response rating; settings: Digitaria sanguinalis, pre-emergence, Preemergence
# Procedure, shortened: (§2)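 Pre-emergence: seeds sown in loam soil–sand blend or silt loam and sprayed with test chemicals in a non-phytotoxic solvent mixture with surfactant. Post-emergence: plants 2 to 18 cm (1- to 4-leaf stage) in peat-based potting medium, same formulation. Greenhouse 13 to 15 d; visual rating 0 (no effect) to 100 (complete control) versus controls.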
# [5] = tested on: oilseed rape (Brassica napus); experiment: Test C preemergence, plant response rating; settings: Brassica napus, pre-emergence, Preemergence
# Procedure, shortened: as §2
# [6] = tested on: nutsedge, yellow (yellow nutsedge, Cyperus esculentus); experiment: Test C preemergence, plant response rating; settings: Cyperus, pre-emergence, Preemergence
# Procedure, shortened: as §2
# [7] = tested on: soybean (Glycine max); experiment: Test C preemergence, plant response rating; settings: Glycine max, pre-emergence, Preemergence
# Procedure, shortened: as §2
# [8] = tested on: ryegrass, Italian (Italian ryegrass, Lolium multiflorum); experiment: Test C preemergence, plant response rating; settings: Lolium multiflorum, pre-emergence, Preemergence
# Procedure, shortened: as §2
# [9] = tested on: lambsquarters (Chenopodium album); experiment: Test C preemergence, plant response rating; settings: Chenopodium album, pre-emergence, Preemergence
# Procedure, shortened: as §2
# [10] = tested on: waterhemp (common waterhemp, Amaranthus rudis); experiment: Test C preemergence, plant response rating; settings: Amaranthus tuberculatus, pre-emergence, Preemergence
# Procedure, shortened: as §2
# [11] = tested on: corn (Zea mays); experiment: Test C preemergence, plant response rating; settings: Zea mays, pre-emergence, Preemergence
# Procedure, shortened: as §2
# [12] = tested on: foxtail, giant (giant foxtail, Setaria faberii); experiment: Test C preemergence, plant response rating; settings: Setaria faberi, pre-emergence, Preemergence
# Procedure, shortened: as §2
# [13] = tested on: ragweed (common ragweed, Ambrosia elatior); experiment: Test C preemergence, plant response rating; settings: Ambrosia artemisiifolia, pre-emergence, Preemergence
# Procedure, shortened: as §2
# [14] = tested on: morningglory (Ipomoea coccinea); experiment: Test C preemergence, plant response rating; settings: Ipomoea, pre-emergence, Preemergence
# Procedure, shortened: as §2
# [15] = tested on: wheat (winter wheat, Triticum aestivum); experiment: Test C preemergence, plant response rating; settings: Triticum aestivum, pre-emergence, Preemergence
# Procedure, shortened: as §2
# [16] = tested on: blackgrass (Alopecurus myosuroides); experiment: Test C preemergence, plant response rating; settings: Alopecurus myosuroides, pre-emergence, Preemergence
# Procedure, shortened: as §2
# [17] = tested on: velvetleaf (Abutilon theophrasti); experiment: Test C preemergence, plant response rating; settings: Abutilon theophrasti, pre-emergence, Preemergence
# Procedure, shortened: as §2
structure (smiles),measurement,setting,value
"O=C(CCC(F)(F)F)c1c(Cl)cccc1Oc1ncc(Cl)cn1 [Compound 107, 1-[2-chloro-6-[(5-chloro-2-pyrimidinyl)oxy]phenyl]-4,4,4-trifluoro-1-butanone]",Galium plant response rating,[1]; 31 g ai/ha,90
same,Galium plant response rating,[1]; 125 g ai/ha,90
same,Barnyardgrass plant response rating,[2]; 31 g ai/ha,40
same,Barnyardgrass plant response rating,[2]; 125 g ai/ha,90
same,Blackgrass plant response rating,[3]; 31 g ai/ha,50
same,Blackgrass plant response rating,[3]; 125 g ai/ha,90
same,pest or weed control at 125 g/ha,"[4]; 125 g ai/ha, scale of 0 to 100",100%
same,pest or weed control at 16 g/ha,"[4]; 16 g ai/ha, scale 0 to 100",98%
same,pest or weed control at 31 g/ha,"[4]; 31 g ai/ha, scale 0 to 100",98%
same,pest or weed control at 62 g/ha,"[4]; 62 g ai/ha, scale 0 to 100",100%
same,plant injury at 125 g/ha,"[5]; 125 g ai/ha, scale of 0 to 100",98%
same,plant injury at 31 g/ha,"[5]; 31 g ai/ha, scale 0 to 100",40%
same,plant injury at 62 g/ha,"[5]; 62 g ai/ha, scale 0 to 100",85%
same,pest or weed control at 125 g/ha,"[6]; 125 g ai/ha, scale of 0 to 100",0%
same,pest or weed control at 31 g/ha,"[6]; 31 g ai/ha, scale 0 to 100",0%
same,pest or weed control at 62 g/ha,"[6]; 62 g ai/ha, scale 0 to 100",0%
same,plant injury at 125 g/ha,"[7]; 125 g ai/ha, scale of 0 to 100",45%
same,plant injury at 31 g/ha,"[7]; 31 g ai/ha, scale 0 to 100",20%
same,plant injury at 62 g/ha,"[7]; 62 g ai/ha, scale 0 to 100",35%
same,pest or weed control at 125 g/ha,"[8]; 125 g ai/ha, scale of 0 to 100",90%
same,pest or weed control at 31 g/ha,"[8]; 31 g ai/ha, scale 0 to 100",35%
same,pest or weed control at 62 g/ha,"[8]; 62 g ai/ha, scale 0 to 100",70%
same,pest or weed control at 125 g/ha,"[9]; 125 g ai/ha, scale of 0 to 100",95%
same,pest or weed control at 31 g/ha,"[9]; 31 g ai/ha, scale 0 to 100",75%
same,pest or weed control at 62 g/ha,"[9]; 62 g ai/ha, scale 0 to 100",85%
same,pest or weed control at 125 g/ha,"[10]; 125 g ai/ha, scale of 0 to 100",100%
same,pest or weed control at 31 g/ha,"[10]; 31 g ai/ha, scale 0 to 100",98%
same,pest or weed control at 62 g/ha,"[10]; 62 g ai/ha, scale 0 to 100",100%
same,"Corn plant response rating (crop injury, 0 = no effect, 100 = complete kill) at 125 g/ha","[11]; 125 g ai/ha, scale of 0 to 100",45%
same,"Corn plant response rating (crop injury, 0 = no effect, 100 = complete kill) at 16 g/ha","[11]; 16 g ai/ha, scale 0 to 100",0%
same,"Corn plant response rating (crop injury, 0 = no effect, 100 = complete kill) at 31 g/ha","[11]; 31 g ai/ha, scale 0 to 100",0%
same,"Corn plant response rating (crop injury, 0 = no effect, 100 = complete kill) at 62 g/ha","[11]; 62 g ai/ha, scale 0 to 100",15%
same,pest or weed control at 125 g/ha,"[12]; 125 g ai/ha, scale of 0 to 100",98%
same,pest or weed control at 31 g/ha,"[12]; 31 g ai/ha, scale 0 to 100",98%
same,pest or weed control at 62 g/ha,"[12]; 62 g ai/ha, scale 0 to 100",98%
same,pest or weed control at 125 g/ha,"[13]; 125 g ai/ha, scale of 0 to 100",50%
same,pest or weed control at 31 g/ha,"[13]; 31 g ai/ha, scale 0 to 100",30%
same,pest or weed control at 62 g/ha,"[13]; 62 g ai/ha, scale 0 to 100",50%
same,pest or weed control at 125 g/ha,"[14]; 125 g ai/ha, scale of 0 to 100",85%
same,pest or weed control at 31 g/ha,"[14]; 31 g ai/ha, scale 0 to 100",0%
same,pest or weed control at 62 g/ha,"[14]; 62 g ai/ha, scale 0 to 100",40%
same,plant injury at 125 g/ha,"[15]; 125 g ai/ha, scale of 0 to 100",35%
same,plant injury at 31 g/ha,"[15]; 31 g ai/ha, scale 0 to 100",10%
same,plant injury at 62 g/ha,"[15]; 62 g ai/ha, scale 0 to 100",15%
same,pest or weed control at 125 g/ha,"[16]; 125 g ai/ha, scale of 0 to 100",90%
same,pest or weed control at 16 g/ha,"[16]; 16 g ai/ha, scale 0 to 100",60%
same,pest or weed control at 31 g/ha,"[16]; 31 g ai/ha, scale 0 to 100",90%
same,pest or weed control at 62 g/ha,"[16]; 62 g ai/ha, scale 0 to 100",90%
same,pest or weed control at 125 g/ha,"[17]; 125 g ai/ha, scale of 0 to 100",98%
same,pest or weed control at 31 g/ha,"[17]; 31 g ai/ha, scale 0 to 100",75%
same,pest or weed control at 62 g/ha,"[17]; 62 g ai/ha, scale 0 to 100",98%
